Results from article PMC5046105, “Improved affinity at the cost of decreased specificity: a recurring theme in PDZ-peptide interactions” (Scientific Reports, 2016).
Ends that are not written are not given here.

Key:
PDZØ9 = assay: Proteomic peptide-phage display (ProP-PD) selection, PDZØ9 as bait; design: species or system human; conditions: number of this peptide among 76 sequenced binding clones after round three of ProP-PD selection
Description: (§1) The peptide-phage library used in the selections consisted of 50,549 heptapeptides representing the C-terminal sequences of the human proteome, fused to the C-terminus of the major coat protein pVIII of the M13 phage. This library was developed and successfully used for the rapid isolation of potential cellular PDZ domain targets, as previously reported.
(§2) Individual binding clones were isolated and sequenced (see Table 1).
(§3) Peptide-phage selections against PDZØ9 and pWT PDZ2 were performed with a previously developed library of 50549 heptapeptides, representing all of the C-terminal sequences in the human proteome. Peptides are fused to the C-terminus of the gene-8 major coat protein of M13 phage and hereby referred to as the naïve peptide library. Each of the two selections was performed twice. First, the two lipoyl-PDZ proteins were used to coat 96-well Maxisorp microtiter plates (NUNC) by incubation overnight at 4 °C (15 μg of protein in 100 μl of PBS per well). For the first round of selection, two wells were used for each PDZ, whereas a single well was used for the following selections. In parallel, wells were coated with lipoyl domain alone in order to remove nonspecific binders by a preselection step. The following day, wells were blocked with 200 μl of 0.5% BSA in PBS for 1 h at 4 °C, and washed four times with PT buffer [PBS, 0.05% Tween-20] before addition of phages. Phage pools representing the naïve peptide library were diluted 50-fold in PBS, precipitated with PEG/NaCl [4% PEG-8000 and 0.5 M NaCl] by incubation for 10 min on ice, pelleted by centrifugation (10 min, 16000 × g), and resuspended in PBS. For each selection round, 100 μl of resuspended phage was added to the preselection wells and incubated for 1 h at 4 °C before transfer to the target wells in which they were incubated for 2 h at 4 °C. The wells were washed five times with PT buffer and bound phages were eluted by direct infection of bacteria through the addition of 100 μl log-phase Escherichia coli Omnimax (Invitrogen) in 2TY, followed by 30 min incubation at 37 °C with shaking. Phage production was initiated by the addition of M13K07 helper phage (New England Biolabs) to a final concentration of 10^10 phage/ml and continued incubation at 37 °C for 45 min. The cultures were then transferred to 10 ml 2TY containing 100 μg/ml carbenicillin, 30 μg/ml kanamycin, and 1 mM IPTG, and shaken overnight at 37 °C. The bacteria were pelleted by centrifugation (10 min, 5300 × g), and the phage-containing supernatant was transferred to a new tube in which phages were precipitated with PEG/NaCl as described above, pelleted by centrifugation (15 min, 5300 × g), and resuspended in 1 ml of PBS. The resuspended phages, hereby-denoted Øout, were then used for the next round of selection. A total of five rounds were carried out and the enrichment of phages specific for the target was monitored by analysing aliquots of Øout in a phage ELISA performed as described below. For each of the five rounds of the respective selection, 10 μg of target protein and lipoyl domain were individually coated in parallel wells using the same type of plate, procedure, and blocking the following day, as described for the selection rounds above. When the 200 μl of blocking solution had been aspirated, 100 μl of resuspended phage was added and incubated for 30 min at 4 °C.

pWT PDZ2 = assay: Proteomic peptide-phage display (ProP-PD) selection, pWT PDZ2 as bait; design: species or system human; conditions: number of this peptide among 71 sequenced binding clones after round three of ProP-PD selection
Description: as §1, §2, §3

[1] = molecular target: Pseudo wild type SAP97 PDZ2 (second PDZ domain of synapse associated protein 97, I342W/C378A) (human) (UniProt Q12959); assay: stopped-flow spectroscopy
pWT PDZ2 L391F (human) [2] = molecular target: pWT PDZ2 L391F (human) (UniProt Q12959); assay: stopped-flow spectroscopy
[3] = molecular target: PDZØ9, engineered variant (L391F/K392M) of pWT SAP97 PDZ2 (human) (UniProt Q12959); assay: stopped-flow spectroscopy
pWT PDZ2 K392M (human) = pWT PDZ2 K392M (human) (UniProt Q12959); assay: stopped-flow spectroscopy
pWT PDZ2 L391F (human) [4] = molecular target: pWT PDZ2 L391F (human) (UniProt Q12959); assay: ITC; PGKETQL peptide titrated into pWT PDZ2 L391F; iTC200, 10 °C, 50 mM potassium phosphate, pH 7.5; 1:1 model; duplicate titrations, average parameters

Sequence of pWT PDZ2 L391F (human) (Q12959 311-407, stated change not applied): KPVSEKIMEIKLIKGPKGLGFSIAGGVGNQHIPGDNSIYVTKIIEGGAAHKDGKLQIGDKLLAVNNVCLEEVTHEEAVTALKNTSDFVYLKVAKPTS
Sequence of PDZØ9, engineered variant (L391F/K392M) of pWT SAP97 PDZ2 (human) (Q12959 311-407, stated change not applied): as the sequence (Q12959 311-407, stated change not applied) above
Sequence of Pseudo wild type SAP97 PDZ2 (second PDZ domain of synapse associated protein 97, I342W/C378A) (human) (Q12959 311-407, stated change not applied): as the sequence (Q12959 311-407, stated change not applied) above
Sequence of pWT PDZ2 K392M (human) (Q12959 311-407, stated change not applied): as the sequence (Q12959 311-407, stated change not applied) above

Row | Molecule | Prevalence, PDZØ9 (76) (PDZØ9) | Prevalence, pWT PDZ2 (71) (pWT PDZ2) | further results
1 | AGKTTIL | 1 |  | 
2 | AGRETTV |  | 1 | 
3 | IKTETTV | 1 | 7 | 
4 | KGTETTL | 1 |  | 
5 | KIKETTV | 1 | 3 | 
6 | RAISTDV | 2 |  | 
7 | WKHETTV | 4 | 5 | 
8 | WKNETTV | 1 | 1 | 
9 | WKSETTV | 1 | 1 | 
10 | YKKETPL | 1 |  | 
11 | Ac-PGKETQL [PGKETQL peptide (C-terminus of SO1C1_HUMAN)] |  |  | koff [1]: 51 s⁻¹; kon [1]: 1.8e+07 M⁻¹ s⁻¹; koff (pWT PDZ2 L391F (human) [2]): 5 s⁻¹; kon (pWT PDZ2 L391F (human) [2]): 2e+07 M⁻¹ s⁻¹; koff [3]: 3.9 s⁻¹; kon [3]: 1.6e+07 M⁻¹ s⁻¹; koff (pWT PDZ2 K392M (human)): 48 s⁻¹; kon (pWT PDZ2 K392M (human)): 1.8e+07 M⁻¹ s⁻¹; Kd (pWT PDZ2 L391F (human) [4]): 310 nM; stoichiometry N (pWT PDZ2 L391F (human) [4]): 0.76
